The record followed here is ChEMBL document CHEMBL5252592, “Design, synthesis, and biological activity evaluation of novel tubulin polymerization inhibitors based on pyrimidine ring skeletons” (Bioorg Med Chem Lett, 2023).

Structures are written as SMILES.

Holding throughout (assay type): functional, cell-based
One experiment relates to HepG2. As to the kind of experiment: Antiproliferative activity against human HepG2 cells assessed as inhibition of cell growth.
The test system of a further experiment is Y79. As to the kind of experiment: Antiproliferative activity against human Y79 cells assessed as inhibition of cell growth.
The test system of another experiment is U-937. As to the kind of experiment: Antiproliferative activity against human U-937 cells assessed as inhibition of cell growth.
A further experiment relates to A549. As to the kind of experiment: Antiproliferative activity against human A549 cells assessed as inhibition of cell growth.

On to `COc1cc(Nc2nccc(-c3ccc4ncccc4c3)n2)cc(OC)c1OC`, for which the IC50 (commonly the concentration needed to halve the response being measured) was 0.84 µM with HepG2, > 10 µM in the experiment on Y79, 0.97 µM with U-937 and 1.76 µM with A549.
In the same order, the values of `COc1cc(Nc2cc(-c3cc4ccccc4s3)ncn2)cc(OC)c1OC` are > 10 µM, > 10 µM, > 10 µM and > 10 µM.
Take `COc1cc(Nc2nccc(-c3csc4ccccc34)n2)cc(OC)c1OC`: the concentration for half-maximal inhibition (IC50) with HepG2 is 3.98 µM; in the experiment with Y79, > 10 µM; with U-937, 1.78 µM; in the experiment on A549, > 10 µM.
For `COc1cc(Nc2ccnc(-c3ccc4c(c3)OCO4)n2)cc(OC)c1OC`, the IC50 with HepG2, in the experiment on Y79, in the experiment on U-937 and in the experiment on A549 was > 10 µM in each case.
In the case of `COc1cc(Nc2ccnc(-c3ccc4c(c3)OCCO4)n2)cc(OC)c1OC`, the IC50 in the experiment on HepG2, in the experiment on Y79, in the experiment on U-937 and with A549 was > 10 µM throughout.
In the case of `COc1cc(Nc2ccnc(-c3csc4ccccc34)n2)cc(OC)c1OC`, the IC50 is 5.01 µM with HepG2, > 10 µM with Y79, 1.54 µM in the experiment on U-937 and 3.06 µM with A549.
The corresponding values for `COc1cc(Nc2cc(-c3coc4ccccc34)nc(N)n2)cc(OC)c1OC` are 1.97 µM, > 10 µM, 1.4 µM and 1.68 µM.
In the same order, the values of `COc1cc(Nc2ccnc(-c3ccc4c(c3)CCO4)n2)cc(OC)c1OC` are > 10 µM, > 10 µM, > 10 µM and > 10 µM.
The corresponding values for `COc1cc(Nc2ccnc(-c3ccc4ncccc4c3)n2)cc(OC)c1OC` are > 10 µM, > 10 µM, > 10 µM and > 10 µM.
For the compound `COc1cc(Nc2cc(-c3ccc4c(c3)CCO4)ncn2)cc(OC)c1OC`, the IC50 in the experiment on HepG2, in the experiment on Y79, in the experiment on U-937 and in the experiment on A549 was > 10 µM in each case.
In the case of `COc1cc(Nc2ccnc(-c3cc4ccccc4s3)n2)cc(OC)c1OC`, the IC50 with HepG2, in the experiment on Y79, in the experiment on U-937 and in the experiment on A549 was > 10 µM throughout.
For the compound `COc1cc(Nc2cc(-c3csc4ccccc34)nc(N)n2)cc(OC)c1OC`, the IC50 in the experiment on HepG2, in the experiment with Y79, in the experiment with U-937 and in the experiment on A549 was > 10 µM throughout.
Take `COc1cc(Nc2nccc(-c3coc4ccccc34)n2)cc(OC)c1OC`: the IC50 in the experiment on HepG2 was 4.19 µM; in the experiment with Y79, > 10 µM; in the experiment with U-937 it was 3.52 µM; in the experiment on A549, 3.83 µM.
Take `COc1cc(Nc2ccnc(-c3ccc4occc4c3)n2)cc(OC)c1OC`: the IC50 in the experiment with HepG2, in the experiment on Y79, in the experiment on U-937 and in the experiment with A549 was > 10 µM in each case.
Turning to `COc1cc(Nc2nccc(-c3cc4ccccc4o3)n2)cc(OC)c1OC`, the IC50 was 1.22 µM with HepG2, > 10 µM in the experiment with Y79, 0.34 µM with U-937 and 2.29 µM in the experiment with A549.
In the case of `COc1cc(Nc2cc(-c3cc4ccccc4o3)nc(N)n2)cc(OC)c1OC`, the IC50 in the experiment on HepG2, in the experiment on Y79, with U-937 and in the experiment with A549 was > 10 µM throughout.
As to `COc1cc(Nc2cc(-c3ccc4ncccc4c3)ncn2)cc(OC)c1OC`, the IC50 in the experiment on HepG2, with Y79, in the experiment on U-937 and in the experiment with A549 was > 10 µM throughout.
In the case of `COc1cc(Nc2cc(-c3ccc4occc4c3)nc(N)n2)cc(OC)c1OC`, the IC50 in the experiment on HepG2 was 4.38 µM; in the experiment on Y79, > 10 µM; with U-937, 2.41 µM; with A549, 4.42 µM.
With `COc1cc(Nc2cc(-c3cc4ccccc4o3)ncn2)cc(OC)c1OC`, the half-inhibitory concentration (IC50) in the experiment with HepG2, with Y79, with U-937 and in the experiment with A549 was > 10 µM in each case.
As for `COc1cc(Nc2nccc(-c3ccc4[nH]c5ccccc5c4c3)n2)cc(OC)c1OC`, the IC50 with HepG2 is 1.48 µM; in the experiment on Y79, > 10 µM; in the experiment on U-937, 0.9 µM; in the experiment with A549, 3.12 µM.
The corresponding values for `COc1cc(Nc2cc(-c3ccc4c(c3)CCO4)nc(N)n2)cc(OC)c1OC` are > 10 µM, > 10 µM, > 10 µM and > 10 µM.
Turning to `COc1cc(Nc2cc(-c3cc4ccccc4s3)nc(N)n2)cc(OC)c1OC`, the IC50 in the experiment with HepG2, in the experiment with Y79, in the experiment with U-937 and in the experiment with A549 was > 10 µM each time.
Turning to `COc1cc(Nc2ccnc(-c3ccc4cc[nH]c4c3)n2)cc(OC)c1OC`, the IC50 in the experiment with HepG2, in the experiment with Y79, with U-937 and in the experiment on A549 was > 10 µM in each case.
For the compound `COc1cc(Nc2nccc(-c3cc4ccccc4s3)n2)cc(OC)c1OC`, the half-maximal inhibitory concentration (IC50) is 0.24 µM in the experiment on HepG2, > 10 µM with Y79, 0.12 µM in the experiment on U-937 and 0.46 µM with A549.
The corresponding values for `COc1cc(Nc2nccc(-c3ccc4c(c3)CCO4)n2)cc(OC)c1OC` are 0.47 µM, 0.6 µM, 0.26 µM and 0.73 µM.
In the same order, the values of `COc1cc(Nc2cc(-c3ccc4cc[nH]c4c3)nc(N)n2)cc(OC)c1OC` are 2.51 µM, > 10 µM, 2.12 µM and 1.92 µM.
In the same order, the values of `COc1cc(Nc2ccnc(-c3cc4ccccc4o3)n2)cc(OC)c1OC` are > 10 µM, > 10 µM, > 10 µM and > 10 µM.
Turning to `COc1cc(Nc2cc(-c3ccc4occc4c3)ncn2)cc(OC)c1OC`, the IC50 in the experiment on HepG2, with Y79, in the experiment on U-937 and with A549 was > 10 µM each time.
As for `COc1cc(Nc2nccc(-c3ccc4c(c3)OCO4)n2)cc(OC)c1OC`, the IC50 with HepG2 was 1.77 µM; with Y79, > 10 µM; in the experiment on U-937, 0.37 µM; in the experiment with A549, 3.17 µM.
In the same order, the values of `COc1cc(Nc2cc(-c3ccc4[nH]c5ccccc5c4c3)ncn2)cc(OC)c1OC` are > 10 µM, > 10 µM, 3.95 µM and 3.03 µM.
For `COc1cc(Nc2nccc(-c3ccc4cc[nH]c4c3)n2)cc(OC)c1OC`, the IC50 in the experiment with HepG2 was 0.37 µM; in the experiment with Y79, > 10 µM; in the experiment on U-937, 0.12 µM; with A549, 0.85 µM.
With `COc1cc(Nc2cc(-c3ccc4c(c3)OCCO4)ncn2)cc(OC)c1OC`, the IC50 in the experiment on HepG2, in the experiment with Y79, in the experiment with U-937 and with A549 was > 10 µM each time.
As for `COc1cc(Nc2ccnc(-c3ccc4[nH]c5ccccc5c4c3)n2)cc(OC)c1OC`, the IC50 was 3.77 µM in the experiment on HepG2, > 10 µM in the experiment on Y79, 1.31 µM in the experiment with U-937 and 3.88 µM in the experiment with A549.
Consider `COc1cc(Nc2cc(-c3ccc4c(c3)OCO4)ncn2)cc(OC)c1OC`, for which the IC50 in the experiment on HepG2, in the experiment with Y79, with U-937 and with A549 was > 10 µM throughout.
For `COc1cc(Nc2ccnc(-c3coc4ccccc34)n2)cc(OC)c1OC`, the concentration for half-maximal inhibition (IC50) in the experiment on HepG2 is 2.41 µM; in the experiment with Y79 it was > 10 µM; in the experiment with U-937, 0.9 µM; in the experiment on A549, 1.4 µM.
The corresponding values for `COc1cc(Nc2cc(-c3ccc4c(c3)OCCO4)nc(N)n2)cc(OC)c1OC` are > 10 µM, > 10 µM, > 10 µM and > 10 µM.
Consider `COc1cc(Nc2cc(-c3cccc4c3OCO4)nc(N)n2)cc(OC)c1OC`, for which the IC50 in the experiment on HepG2, in the experiment with Y79, with U-937 and with A549 was > 10 µM each time.
Consider `COc1cc(Nc2cc(-c3ccc4cc[nH]c4c3)ncn2)cc(OC)c1OC`, for which the concentration for half-maximal inhibition (IC50) in the experiment with HepG2, with Y79, in the experiment on U-937 and in the experiment on A549 was > 10 µM each time.
As for `COc1cc(Nc2cc(-c3coc4ccccc34)ncn2)cc(OC)c1OC`, the IC50 with HepG2, with Y79, in the experiment on U-937 and in the experiment with A549 was > 10 µM throughout.
Regarding `COc1cc(Nc2nccc(-c3ccc4occc4c3)n2)cc(OC)c1OC`, the IC50 is 0.79 µM with HepG2, > 10 µM in the experiment with Y79, 0.04 µM with U-937 and 1.76 µM in the experiment with A549.
With `COc1cc(Nc2nccc(-c3ccc4sc5ccccc5c4c3)n2)cc(OC)c1OC`, the IC50 in the experiment on HepG2 is > 10 µM; with Y79, > 10 µM; in the experiment with U-937, 7.17 µM; with A549, > 10 µM.
As to `COc1cc(Nc2cc(-c3csc4ccccc34)ncn2)cc(OC)c1OC`, the IC50 in the experiment with HepG2, with Y79, in the experiment on U-937 and in the experiment on A549 was > 10 µM throughout.
